Laboratory results reported in PubChem BioAssay (NCI).
Values joined by “and” are separate entries in the source; they are usually repeats but may differ in a detail not shown here. Identical values can stand only once.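 Grown in 96-well plates, cells were treated for 48 hours with each compound at five concentrations. Insufficient inhibition: endpoint recorded as highest concentration tested. At the GI50, growth is halved. TGI marks complete inhibition of growth.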

Tests used:
Assay in all cases: DTP human tumour cell line panel, 48 h
786-0 renal = tested on: 786-0 renal
HL-60(TB) leukemia = tested on: HL-60(TB) leukemia
RXF 393 renal = tested on: RXF 393 renal
CCRF-CEM leukemia = tested on: CCRF-CEM leukemia
HOP-62 NSCLC = tested on: HOP-62 NSCLC
NCI/ADR-RES ovarian = tested on: NCI/ADR-RES ovarian
U251 CNS = tested on: U251 CNS

Structure (SMILES) | GI50 (786-0 renal) | TGI (786-0 renal) | GI50 (HL-60(TB) leukemia) | TGI (HL-60(TB) leukemia) | GI50 (RXF 393 renal) | TGI (RXF 393 renal) | GI50 (CCRF-CEM leukemia) | TGI (CCRF-CEM leukemia) | GI50 (HOP-62 NSCLC) | TGI (HOP-62 NSCLC) | GI50 (NCI/ADR-RES ovarian) | TGI (NCI/ADR-RES ovarian) | GI50 (U251 CNS) | TGI (U251 CNS)
CN(C)c1ccc(/C=N/n2c(CCCCc3n[nH]c(=S)n3/N=C/c3ccc(N(C)C)cc3)n[nH]c2=S)cc1 | 89.3 µM | > 100 µM | > 100 µM | > 100 µM | > 100 µM | > 100 µM | > 100 µM | > 100 µM | 66.8 µM | > 100 µM | > 100 µM | > 100 µM | 74 µM | > 100 µM
COc1ccc(C2CC(c3ccc4ccccc4c3)=NN2c2nc(O)c(C3=c4cc(Cl)ccc4=NC3=O)s2)cc1 (stereo not given) | 0.0231 µM and < 0.005 µM |  | 0.171 µM |  | 0.0186 µM and < 0.005 µM | 0.0389 µM and < 0.005 µM | 0.0362 µM and < 0.005 µM | 0.533 µM | 0.025 µM and < 0.005 µM |  | 0.0923 µM | 50 µM | 0.0199 µM and < 0.005 µM | 0.0414 µM and < 0.005 µM
CC[C@H](C)[C@H](NC(=O)[C@H]1CCCCN1C)C(=O)N(C)[C@H](C[C@@H](OC(C)=O)c1nc(C(=O)NC23C4C5C2C2C3C4C52C(=O)OC)cs1)C(C)C (stereo not given in full) | 0.00359 µM and 0.0025 µM | > 25 µM | 0.000317 µM and < 0.0025 µM | 0.00196 µM and < 0.0025 µM | 0.000768 µM | 0.00906 µM | 0.0027 µM and 0.0025 µM | 3.33 µM | 0.00265 µM and 0.0025 µM | > 25 µM | 0.0676 µM |  | 0.00424 µM and 0.0025 µM | > 25 µM
CCN(CC)CCOc1ccc(NC(=O)C(C(C)C)N2C(=O)/C(=C/c3ccc(Br)cc3)SC2=S)cc1 (stereo not given) | 1.76 µM | 3.22 µM | 4.96 µM | 20.8 µM | 5.6 µM | 19.1 µM | 2.82 µM | 9.52 µM | 2.36 µM | 7.11 µM | 3.93 µM | 14.3 µM | 1.94 µM | 4.08 µM
O=C(O)CC(S)C(=O)O.[Li+].[Sb] (stereo not given) | > 100 µM | > 100 µM | > 100 µM | > 100 µM | > 100 µM | > 100 µM | 57 µM | > 100 µM | 44.2 µM | > 100 µM | > 100 µM | > 100 µM | 39.9 µM | > 100 µM
COc1ccc(Cl)cc1Nc1nc(C(F)(F)F)ccc1C(=O)N/N=C/c1ccccc1Cl | 4.66 µM | > 23 µM | 2.74 µM | > 19.7 µM | 0.455 µM | 3.06 µM | 0.446 µM | 2.79 µM | 7.7 µM | > 29.2 µM | 2.83 µM | > 28.4 µM | 1.57 µM | > 31 µM
